Columns and labels:
Format in all cases: in vivo
[1] = tested on: barnyardgrass (Echinochloa crus-galli); test: Test A preemergence, barnyardgrass; details: Preemergence, 0 to 100 scale (0 no effect, 100 complete control)
Description: (§1) Seeds of plant species selected from barnyardgrass (Echinochloa crus-galli), kochia (Kochia scoparia), ragweed (common ragweed, Ambrosia elatior), ryegrass, Italian (Italian ryegrass, Lolium multiflorum), foxtail, giant (giant foxtail, Setaria faberii), and pigweed (Amaranthus retroflexus), were planted into a blend of loam soil and sand and treated preemergence with a directed soil spray using test chemicals formulated in a non-phytotoxic solvent mixture which included a surfactant.
(§2) At the same time, plants selected from these weed species and also wheat (Triticum aestivum), corn (Zea mays), blackgrass (Alopecurus myosuroides), and galium (catchweed bedstraw, Galium aparine), were planted in pots containing the same blend of loam soil and sand and treated with postemergence applications of test chemicals formulated in the same manner. Plants ranged in height from 2 to 10 cm and were in the one- to two-leaf stage for the postemergence treatment. Treated plants and untreated controls were maintained in a greenhouse for approximately 10 days, after which time all treated plants were compared to untreated controls and visually evaluated for injury. Plant response ratings, summarized in Table A, are based on a 0 to 100 scale where 0 is no effect and 100 is complete control. A dash (—) response means no test result.

[2] = tested on: foxtail, giant (giant foxtail, Setaria faberii); test: Test A preemergence, giant foxtail; details: Preemergence, 0 to 100 scale (0 no effect, 100 complete control)
Description: as §1, §2

[3] = tested on: barnyardgrass (Echinochloa crus-galli); test: Test A postemergence, barnyardgrass; details: postemergence, 0 to 100 scale, 0 is no effect, 100 is complete control, approximately 10 days
Description: as §1, §2

[4] = tested on: ryegrass, Italian (Italian ryegrass, Lolium multiflorum); test: Test A postemergence, Italian ryegrass; details: postemergence, 0 to 100 scale, 0 is no effect, 100 is complete control, approximately 10 days
Description: as §1, §2

[5] = tested on: wheat (Triticum aestivum); test: Test A postemergence, wheat; details: postemergence, 0 to 100 scale, 0 is no effect, 100 is complete control, approximately 10 days
Description: as §1, §2

kochia (Kochia scoparia) [6] = test: Test A preemergence, kochia; details: Preemergence, 0 to 100 scale (0 no effect, 100 complete control)
Description: as §1, §2

[7] = tested on: pigweed (Amaranthus retroflexus); test: Test A preemergence, pigweed; details: Preemergence, 0 to 100 scale (0 no effect, 100 complete control)
Description: as §1, §2

[8] = tested on: ryegrass, Italian (Italian ryegrass, Lolium multiflorum); test: Test A preemergence, Italian ryegrass; details: Preemergence, 0 to 100 scale (0 no effect, 100 complete control)
Description: as §1, §2

corn (Zea mays) = test: Test A postemergence, corn; details: postemergence, 0 to 100 scale, 0 is no effect, 100 is complete control, approximately 10 days
Description: as §1, §2

kochia (Kochia scoparia) [9] = test: Test A postemergence, kochia; details: postemergence, 0 to 100 scale, 0 is no effect, 100 is complete control, approximately 10 days
Description: as §1, §2

[10] = tested on: galium (catchweed bedstraw, Galium aparine); test: Test A postemergence, galium; details: postemergence, 0 to 100 scale, 0 is no effect, 100 is complete control, approximately 10 days
Description: as §1, §2

[11] = tested on: ragweed (common ragweed, Ambrosia elatior); test: Test A preemergence, ragweed; details: Preemergence, 0 to 100 scale (0 no effect, 100 complete control)
Description: as §1, §2

[12] = tested on: pigweed (Amaranthus retroflexus); test: Test A postemergence, pigweed; details: postemergence, 0 to 100 scale, 0 is no effect, 100 is complete control, approximately 10 days
Description: as §1, §2

[13] = tested on: blackgrass (Alopecurus myosuroides); test: Test A postemergence, blackgrass; details: postemergence, 0 to 100 scale, 0 is no effect, 100 is complete control, approximately 10 days
Description: as §1, §2

[14] = tested on: foxtail, giant (giant foxtail, Setaria faberii); test: Test A postemergence, giant foxtail; details: postemergence, 0 to 100 scale, 0 is no effect, 100 is complete control, approximately 10 days
Description: as §1, §2

[15] = tested on: ragweed (common ragweed, Ambrosia elatior); test: Test A postemergence, ragweed; details: postemergence, 0 to 100 scale, 0 is no effect, 100 is complete control, approximately 10 days
Description: as §1, §2

rice (Oryza sativa) = test: Test B flooded paddy test, rice; details: 250 g ai/ha, Flood; visual rating after 13 to 15 days; scale 0 to 100, 0 is no effect, 100 is complete control
Method: (§3) Plant species in the flooded paddy test selected from rice (Oryza sativa), sedge, umbrella (small-flower umbrella sedge, Cyperus difformis), ducksalad (Heteranthera limosa), and barnyardgrass (Echinochloa crus-galli) were grown to the 2-leaf stage for testing. At time of treatment, test pots were flooded to 3 cm above the soil surface, treated by application of test compounds directly to the paddy water, and then maintained at that water depth for the duration of the test. Treated plants and controls were maintained in a greenhouse for 13 to 15 days, after which time all species were compared to controls and visually evaluated. Plant response ratings, summarized in Table B, are based on a scale of 0 to 100 where 0 is no effect and 100 is complete control. A dash (—) response means no test result.

[16] = tested on: ducksalad (Heteranthera limosa); test: Test B flooded paddy test, ducksalad; details: 250 g ai/ha, Flood; visual rating after 13 to 15 days; scale 0 to 100, 0 is no effect, 100 is complete control
Method: as §3

[17] = tested on: barnyardgrass (Echinochloa crus-galli); test: Test B flooded paddy test, barnyardgrass; details: 250 g ai/ha, Flood; visual rating after 13 to 15 days; scale 0 to 100, 0 is no effect, 100 is complete control
Method: as §3

[18] = tested on: sedge, umbrella (small-flower umbrella sedge, Cyperus difformis); test: Test B flooded paddy test, umbrella sedge; details: 250 g ai/ha, Flood; visual rating after 13 to 15 days; scale 0 to 100, 0 is no effect, 100 is complete control
Method: as §3

Compound	Plant response rating, Barnyardgrass ([1]; 31 g ai/ha)	Plant response rating, Barnyardgrass ([1]; 125 g ai/ha)	Plant response rating, Foxtail, Giant ([2]; 31 g ai/ha)	Plant response rating, Foxtail, Giant ([2]; 125 g ai/ha)	Plant response rating, Barnyardgrass ([3]; 31 g ai/ha)	Plant response rating, Barnyardgrass ([3]; 125 g ai/ha)	Plant response rating, Ryegrass, Italian ([4]; 31 g ai/ha)	Plant response rating, Ryegrass, Italian ([4]; 125 g ai/ha)	Plant response rating, Wheat ([5]; 31 g ai/ha)	Plant response rating, Wheat ([5]; 125 g ai/ha)	Plant response rating, Kochia (kochia (Kochia scoparia) [6]; 31 g ai/ha)	Plant response rating, Kochia (kochia (Kochia scoparia) [6]; 125 g ai/ha)	Plant response rating, Pigweed ([7]; 31 g ai/ha)	Plant response rating, Pigweed ([7]; 125 g ai/ha)	Plant response rating, Ryegrass, Italian ([8]; 31 g ai/ha)	Plant response rating, Ryegrass, Italian ([8]; 125 g ai/ha)	Plant response rating, Corn (corn (Zea mays); 31 g ai/ha)	Plant response rating, Corn (corn (Zea mays); 125 g ai/ha)	Plant response rating, Galium ([10]; 31 g ai/ha)	Plant response rating, Galium ([10]; 125 g ai/ha)	also measured
N#Cc1cccc(Oc2ncc(Cl)cn2)c1OC/C=C/Cl [Compound 7]	20	100	60	100	10	90	10	50	0	10	70	100	60	100	0	10	10	20	50	80	Plant response rating, Kochia (kochia (Kochia scoparia) [9]; 31 g ai/ha): 90; Plant response rating, Kochia (kochia (Kochia scoparia) [9]; 125 g ai/ha): 100; Plant response rating, Ragweed ([11]; 31 g ai/ha): 0; Plant response rating, Ragweed ([11]; 125 g ai/ha): 0; Plant response rating, Pigweed ([12]; 31 g ai/ha): 60; Plant response rating, Pigweed ([12]; 125 g ai/ha): 90; Plant response rating, Blackgrass ([13]; 31 g ai/ha): 10; Plant response rating, Blackgrass ([13]; 125 g ai/ha): 30; Plant response rating, Foxtail, Giant ([14]; 31 g ai/ha): 10; Plant response rating, Foxtail, Giant ([14]; 125 g ai/ha): 90; Plant response rating, Ragweed ([15]; 31 g ai/ha): 0; Plant response rating, Ragweed ([15]; 125 g ai/ha): 10
N#Cc1cccc(Oc2ncc(Cl)cn2)c1OCCCF [Compound 15]	0	20	30	90	60	90	0	10	0	0	50	100	100	100	0	10	10	10	20	50	Plant response rating, Kochia (kochia (Kochia scoparia) [9]; 31 g ai/ha): 50; Plant response rating, Kochia (kochia (Kochia scoparia) [9]; 125 g ai/ha): 80; Plant response rating, Ragweed ([11]; 31 g ai/ha): 0; Plant response rating, Ragweed ([11]; 125 g ai/ha): 0; Plant response rating, Pigweed ([12]; 31 g ai/ha): 60; Plant response rating, Pigweed ([12]; 125 g ai/ha): 70; Plant response rating, Blackgrass ([13]; 31 g ai/ha): 0; Plant response rating, Blackgrass ([13]; 125 g ai/ha): 10; Plant response rating, Foxtail, Giant ([14]; 31 g ai/ha): 10; Plant response rating, Foxtail, Giant ([14]; 125 g ai/ha): 30; Plant response rating, Ragweed ([15]; 31 g ai/ha): 0; Plant response rating, Ragweed ([15]; 125 g ai/ha): 20
N#CCCCOc1c(C#N)cccc1Oc1ncc(F)cn1 [Compound 37]	0	20	20	50	10	20	0	0	0	0	30	80	100	100	0	0	0	20	40	60	Plant response rating, Kochia (kochia (Kochia scoparia) [9]; 31 g ai/ha): 50; Plant response rating, Kochia (kochia (Kochia scoparia) [9]; 125 g ai/ha): 80; Plant response rating, Ragweed ([11]; 31 g ai/ha): 30; Plant response rating, Ragweed ([11]; 125 g ai/ha): 70; Plant response rating, Pigweed ([12]; 31 g ai/ha): 60; Plant response rating, Pigweed ([12]; 125 g ai/ha): 70; Plant response rating, Blackgrass ([13]; 31 g ai/ha): 0; Plant response rating, Blackgrass ([13]; 125 g ai/ha): 10; Plant response rating, Foxtail, Giant ([14]; 31 g ai/ha): 0; Plant response rating, Foxtail, Giant ([14]; 125 g ai/ha): 10; Plant response rating, Ragweed ([15]; 31 g ai/ha): 30; Plant response rating, Ragweed ([15]; 125 g ai/ha): 50
Cc1cccc(Oc2ncc(Cl)cn2)c1OC/C=C/Cl [Compound 59]	30	100	10	50	40	100	0	0	0	0	60	100	20	100	0	0	0	10	90	30	Plant response rating, Rice (rice (Oryza sativa)): 0; Plant response rating, Ducksalad [16]: 100; Plant response rating, Ragweed ([11]; 31 g ai/ha): 0; Plant response rating, Ragweed ([11]; 125 g ai/ha): 0; Plant response rating, Pigweed ([12]; 31 g ai/ha): 40; Plant response rating, Pigweed ([12]; 125 g ai/ha): 70; Plant response rating, Blackgrass ([13]; 31 g ai/ha): 0; Plant response rating, Blackgrass ([13]; 125 g ai/ha): 50; Plant response rating, Barnyardgrass [17]: 20; Plant response rating, Sedge, Umbrella [18]: 90; Plant response rating, Foxtail, Giant ([14]; 31 g ai/ha): 20; Plant response rating, Foxtail, Giant ([14]; 125 g ai/ha): 50; Plant response rating, Ragweed ([15]; 31 g ai/ha): 0; Plant response rating, Ragweed ([15]; 125 g ai/ha): 0
N#Cc1cccc(Oc2ncc(F)cn2)c1OC/C=C/Cl [Compound 36]	30	80	30	90	0	70	0	20	0	0	10	100	100	100	0	0	0	20	40	50	Plant response rating, Kochia (kochia (Kochia scoparia) [9]; 31 g ai/ha): 80; Plant response rating, Kochia (kochia (Kochia scoparia) [9]; 125 g ai/ha): 90; Plant response rating, Ragweed ([11]; 31 g ai/ha): 0; Plant response rating, Ragweed ([11]; 125 g ai/ha): 0; Plant response rating, Pigweed ([12]; 31 g ai/ha): 50; Plant response rating, Pigweed ([12]; 125 g ai/ha): 50; Plant response rating, Blackgrass ([13]; 31 g ai/ha): 10; Plant response rating, Blackgrass ([13]; 125 g ai/ha): 50; Plant response rating, Foxtail, Giant ([14]; 31 g ai/ha): 0; Plant response rating, Foxtail, Giant ([14]; 125 g ai/ha): 50; Plant response rating, Ragweed ([15]; 31 g ai/ha): 20; Plant response rating, Ragweed ([15]; 125 g ai/ha): 40

From patent publication US10485235B2, “Aryloxypyrimidinyl ethers as herbicides” (FMC Corporation, priority 2015, dated 2019)
